Here are results for one compound from patent publication US20070232492A1, “Herbicidal Composition” (Ishihara Sangyo Kaisha, LTD., priority 2004, published 2007).

Where two headings read alike, the source gives them in different places.

Common to all, as to assay type: in vivo
For experiment [1], the system named is barnyardgrass (Echinochloa oryzicola vasing). Briefly: Growth inhibition of barnyardgrass in paddy soil pots, application under submerged condition, visual rating (observed value) and Colby expected value. The conditions noted are these: Echinochloa oryzicola, soil, read-out: Growth inhibition rate (%) Observed; for inhibition at 2.3 g/ha: 0.023 g/a; for inhibition at 4.5 g/ha: 0.045 g/a. The method in brief:
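Barnyardgrass (Echinochloa oryzicola vasing) seeds were sown in paddy field soil in 1/10,000 are pots and kept irrigated at a water depth of 3.5 cm. Wettable powders of the active ingredients were diluted with water and applied under submerged conditions at the prescribed amounts. Growth was visually scored from 0% (as untreated) to 100% (complete kill), and expected values were calculated with Colby's formula.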

In experiment [2] the test system is flatsedge (Cyperus serotinus). As to the kind of experiment: Growth inhibition of flatsedge (planted tubers) in paddy soil pots, application under submerged condition, visual rating and Colby expected value. The following applies: Cyperus serotinus, soil, 696 h, 2.8 to 3.2 leaf stage, 29 days after application, read-out: Growth inhibition rate (%) Observed. The source says: (§1) When the herbicidal activity in a case where two active ingredients are combined, is larger than the simple sum of the respective herbicidal activities of the two active ingredients (the expected activity), it is called a synergistic effect. The activity expected by the combination of two active ingredients can be calculated as follows (Colby S. R., “Weed”, vol. 15, p. 20-22, 1967). E=p+q−(p×q÷100) where p: growth inhibition rate when treated with x (g/a) of herbicide X,
(§2) q: growth inhibition rate when treated with y (g/a) of herbicide Y,
(§3) E: growth inhibition rate expected when treated with x (g/a) of herbicide X and y (g/a) of herbicide Y.
(§4) Namely, when the actual growth inhibition rate (observed value) is larger than the growth inhibition rate by the above calculation (expected value), the activity by the combination can be regarded as showing a synergistic effect.
(§5) Growth inhibition rate (%)=0% (equivalent to the non-treated area) to 100% (complete kill)
Paddy field soil was put into a 1/10,000 are pot, and tubers of flatsedge (Cyperus serotinus) were planted and left to stand under an irrigated condition with a water depth of 3.5 cm. When flatsedge reached 2.8 to 3.2 leaf stage, wettable powders of compound A2 and compound (B1.2) were, respectively, diluted with water and applied under submerged condition so that the active ingredients became the prescribed amounts, respectively. The state of growth was visually observed 29 days after application, and evaluation and calculation were carried out in the same manner as in the above Test Example 1.
Paddy field soil was put into a 1/3,000 are pot, and tubers of flatsedge (Cyperus serotinus) were planted and left to stand under an irrigated condition with a water depth of 3.5 cm. When flatsedge reached 4 leaf stage, a wettable powder of compound A2 and an emulsifiable concentrate of compound C4 were, respectively, diluted with water and applied under submerged condition so that the active ingredients became the prescribed amounts, respectively. The state of growth was visually observed 21 days after application, and the growth inhibition rate (%) evaluated in the same manner as in the above Test Example 1 (observed value) and the growth inhibition rate (%) calculated by the above-mentioned Colby method (expected value) are shown in Table 32.
Paddy field soil was put into a 1/10,000 are pot, and tubers of flatsedge (Cyperus serotinus) were planted and left to stand under an irrigated condition with a water depth of 3.5 cm. When flatsedge reached 2.5 to 3.0 leaf stage, wettable powders of compound A2, compound (D2.3) and compound (B4.1) were, respectively, diluted with water and applied under submerged condition so that the active ingredients became the prescribed amounts, respectively. The state of growth was visually observed 30 days after application, and evaluated in the same manner as in the above Test Example 1.
Paddy field soil was put into a 1/10,000 are pot, and tubers of flatsedge (Cyperus serotinus) were planted and left to stand under an irrigated condition with a water depth of 3.5 cm. When flatsedge reached 2.5 to 3.0 leaf stage, wettable powders of compound A2, compound (D2.3) and compound (B6.1) were, respectively, diluted with water and applied under submerged condition so that the active ingredients became the prescribed amounts, respectively. The state of growth was visually observed 30 days after application, and evaluated in the same manner as in the above Test Example 1.
Paddy field soil was put into a 1/10,000 are pot, and tubers of flatsedge (Cyperus serotinus) were planted and left to stand under an irrigated condition with a water depth of 3.5 cm. When flatsedge reached 2.5 to 3.0 leaf stage, wettable powders of compound A2, compound (D2.3) and compound (B8.1) were, respectively, diluted with water and applied under submerged condition so that the active ingredients became the prescribed amounts, respectively. […]

Experiment [3] is described as follows: Growth inhibition of mixed broadleaf paddy weeds in paddy soil pots, application under submerged condition, visual rating and Colby expected value. The conditions noted are these: mixed broadleaf paddy weeds, soil, 504 h; 0.12 g/a; false pimpernel one leaf-pair stage; 21 days after application; read-out: Growth inhibition rate (%) Observed.
Excerpt: as §1, §2, §3, §4, §5
Paddy field soil was put into a 1/1,700 are pot, and mixed seeds of false pimpernel (Lindernia pyxidaria), abunome (Dopatrium junceum), long stem waterwort (Elatine triandra SCHK.) and toothcup (Rotala india) were sown and left to stand under an irrigated condition with a water depth of 3.5 cm. When false pimpernel reached one leaf-pair stage, wettable powders of compound A2 and compound (B1.2) were, respectively, diluted with water and applied under submerged condition so that the active ingredients became the prescribed amounts, respectively. The state of growth was visually observed 21 days after application, and evaluation and calculation were carried out in the same manner as in the above Test Example 1.
Paddy field soil was put into a 1/1,700 are pot, and mixed seeds of false pimpernel (Lindernia pyxidaria), abunome (Dopatrium junceum), long stem waterwort (Elatine triandra SCHK.) and toothcup (Rotala india) were sown and left to stand under an irrigated condition with a water depth of 3.5 cm. When false pimpernel reached two leaf-pair stage, a wettable powder of compound A2 and an emulsifiable concentrate of compound (B8.1) were, respectively, diluted with water and applied under submerged condition so that the active ingredients became the prescribed amounts, respectively. The state of growth was visually observed 22 days after application, and evaluation and calculation were carried out in the same manner as in the above Test Example 1.

Setting [4] is: 504 h, 3.0 to 3.3 leaf stage, 21 days after application.
[5] abbreviates: 528 h, 2.5 to 3.0 leaf stage, 22 days after application.

`COc1cc(OC)nc(NC(=O)NS(=O)(=O)c2c(-c3nnn(C)n3)cnn2C)n1` [Compound (B1.2), azimsulfuron]: in experiment [1] (setting [4]), the inhibition (commonly the share of the control response that was lost under treatment) at 2.3 g/ha amounted to 0% and the inhibition at 4.5 g/ha came out at 7%. Moreover, in experiment [1] (setting [5]), the inhibition at 2.3 g/ha was determined as 0% and the inhibition at 4.5 g/ha amounted to 53%. For the same compound, in experiment [1] (696 h, 0.03 g/a, 2.4 to 3.2 leaf stage, 29 days after application, Test Example 45), the inhibition at 3 g/ha is 30%. In addition, the inhibition at 6 g/ha in experiment [1] (696 h, 0.06 g/a, 2.4 to 3.2 leaf stage, 29 days after application, Test Example 45) was 57%. In addition, the inhibition at 7.5 g/ha in experiment [1] (696 h, 0.075 g/a, 2.4 to 3.2 leaf stage, 29 days after application, Test Example 45) was 60%. For the same compound, the inhibition at 1.25 g/ha in experiment [2] (0.0125 g/a) came to 20%. Further, the inhibition at 1.5 g/ha in experiment [2] (0.015 g/a) was determined as 33%. Also, the inhibition at 1.88 g/ha in experiment [2] (0.0188 g/a) was found to be 58%. Further, in experiment [3], the inhibition at 12 g/ha is 60%.
